# According to patent US8518443B2, “Opioid agonist formulations with releasable and sequestered antagonist” (Purdue Pharma, L.P., priority 2001, dated 2013):
# Where a name gives a salt, the structure may show the parent alone. Read-outs that look alike come from different tables or passages of the source.
# Key:
# [1] = type: in vivo
# Text: In certain preferred embodiments, the opioid agonist is hydrocodone or oxycodone.
# [2] = cited from earlier work
# [3] = after oral doses; cited from earlier work
# [4] = tested on: opioid receptors; details: daily dosage of 50 mg; cited from earlier work
# [5] = following oral administration; cited from earlier work
# [6] = in comparison to a 15 mg dose of hydrocodone
Compound,"Equianalgesic dose, Calculated Dose [1, 6]",also measured
COc1ccc2c3c1O[C@H]1[C@@H](O)C=C[C@H]4[C@@H](C2)N(C)CC[C@@]341 [Codeine],90.0 mg,
CCC(=O)C(CC(C)N(C)C)(c1ccccc1)c1ccccc1 (stereo not drawn) [Methadone],9.0 mg,
O=C1CC[C@@]2(O)[C@H]3Cc4ccc(O)c5c4[C@@]2(CCN3CC2CC2)[C@H]1O5 [hydrochloride salt of naltrexone],,solubility in water [2]: about 100 mg/cc
Meperidine,135.0 mg,
"COc1ccc2c3c1OC1C(=O)CC[C@H]4[C@@H](C2)N(C)CC[C@]314 (stereo partly drawn) [Hydrocodone, 4,5-epoxy-3-methoxy-17-methylmorphinan-6-one]",15.0 mg,
O=C1CC[C@@]2(O)[C@H]3Cc4ccc(O)c5c4[C@@]2(CCN3CC2CC2)[C@H]1O5 [naltrexone],,duration of action [3]: ~24 h; blockade of the actions of parenterally administered opioids [4]: adequate clinical blockade; oral bioavailability [5]: 5-40%
C[C@H]1[C@H]2Cc3ccc(O)cc3[C@]1(C)CCN2CC1CC1 [cyclazocine],,duration of action [3]: ~24 h
CN1CC[C@]23c4c5ccc(O)c4O[C@H]2[C@@H](O)C=C[C@H]3[C@H]1C5 [Morphine],,"Equianalgesic dose, Calculated Dose ([1]; in vivo): 27.0 mg"
CN1CC[C@]23CCCC[C@H]2[C@H]1Cc1ccc(O)cc13 [Levorphanol],1.8 mg,
"COc1ccc2c3c1O[C@H]1C(=O)CC[C@@]4(O)[C@@H](C2)N(C)CC[C@]314 [Oxycodone, 4,5-expoxy-14-hydroxy-3-methoxy-17-methylmorphinan-6-one]",13.5 mg,
